According to patent EP4786473A1, “PHARMACEUTICALLY ACCEPTABLE SALT AND CRYSTALLINE FORM OF QUINAZOLINE DERIVATIVE, AND USE THEREOF” (Jiangsu Hengrui Pharmaceuticals Co., Ltd., priority 2023, dated 2025):
Like-named read-outs stand apart in the source and are kept apart here.

Key:
[1] = Long-term/accelerated stability; format: physicochemical
[2] = DVS (dynamic vapor sorption) hygroscopicity test; format: physicochemical
Experimental: DVS refers to dynamic vapor sorption and is determined using SMS DVS Advantage at 25°C, with the humidity change of 50%-95%-0%-95%-50% and the stepping of 10% (5% for the last step) (the specific humidity range is determined in accordance with the corresponding plot, and the methods listed herein are those most commonly used), and the standard for determination is as follow: dm/dt is not more than 0.002%.
100 mg of the compound of formula 1 was dissolved in 1 mL of acetone to give a clear solution. An aqueous p-toluenesulfonic acid solution (97.10 µL, 2 M) was added to the resulting solution. The mixture was stirred and centrifuged. The resulting solid was collected and dried under vacuum to obtain a product. […] The p-toluenesulfonate ion content of the product was detected to be 22.63% by ion chromatography. […] Furthermore, the crystal form was re-detected and found to be unchanged following the DVS test.

[3] = Stability study under influencing factors; format: physicochemical
Excerpt: The sampling and investigation period was 1 month.

[4] = test system: HER2 wild-type Ba/F3 cells; experiment: Ba/F3 cell proliferation assay (HER2 wild-type); format: cell-based; conditions: 72 hours, Celltiter-Glo
Experimental: (§1) EGFR wild-type Ba/F3 cells in the logarithmic growth phase (Cobioer, Cat. No.: CBP73110) were seeded into 96-well plates at a density of 2.5 × 10^3 cells/100 uL of growth culture medium. HER2 wild-type Ba/F3 cells (Cobioer, Cat. No.: CBP73110) or HER2 A775_G776insYVMA mutant Ba/F3 cells (Cobioer, Cat. No.: CBP73184) in the logarithmic growth phase were seeded into 96-well plates at a density of 5 × 10^3 cells/100 uL of growth culture medium. The plates were incubated overnight in a 37°C cell incubator. The following day, the compound, which had been serially diluted 3-fold in growth culture medium, was added at 100 uL/well. All treatments were performed in triplicate. The plates were incubated in the 37°C cell incubator for another 72 hours. Celltiter-Glo Luminescent Cell Viability Assay was performed.
(§2) The cell proliferation rate was calculated for each well according to the following formula: Proliferation (%) = (G3 - G0 mean value of test compound wells)/(G3 mean value - GO mean value of DMSO control wells)*100. Based on the proliferation rate corresponding to each gradient concentration well and concentration thereof, the gradient curve of cell proliferation was fitted using Prism Graphpad software, and the GI50 of the compound was calculated (GI50 is defined as the compound concentration required to achieve a 50% inhibition rate of cell proliferation).

[5] = test system: HER2 A775_G776insYVMA mutant Ba/F3 cells; experiment: Ba/F3 cell proliferation assay (HER2 exon 20 YVMA insertion mutant); format: cell-based; conditions: 72 hours, Celltiter-Glo; for GI50: read-out: HER2 A775_G776 ins YVMA/BaF 3 GI50
Experimental: as §1, §2

[6] = test system: EGFR wild-type Ba/F3 cells; experiment: Ba/F3 cell proliferation assay (EGFR wild-type); format: cell-based; conditions: 72 hours, Celltiter-Glo
Experimental: as §1, §2

[7] = 75% RH, 1 month, open container
[8] = 75% RH, 13 days, open container
[9] = 92.5% RH, 1 month, open container
[10] = 92.5% RH, 13 days, open container
[11] = 4500 Lux, 1 month, open container
[12] = 4500 Lux, 7 days, open container
[13] = 4500 Lux, 13 days, open container

C=CC(=O)N1[C@@H]2CC[C@H]1C[C@@H](Oc1ccc3ncnc(Nc4ccc(Oc5ccn6ncnc6c5)c(C)c4F)c3c1)C2 [Crystal form I of p-toluenesulfonate, 1-(endo-3-((4-((4-([1,2,4]triazolo[1,5-a]pyridin-7-yloxy)-2-fluoro-3-methylphenyl)amino)quinazolin-6-yl)oxy)-8-azabicyclo[3.2.1]oct-8-yl)prop-2-en-1-one]
Colour and trait ([1]; 25°C/60% RH, 1 month): White powder
Purity% ([1]; 25°C/60% RH, 1 month): 99.7%
Salt form ([1]; 25°C/60% RH, 1 month): Unchanged
Colour and trait ([1]; 25°C/60% RH, 2 months): White powder
Purity% ([1]; 25°C/60% RH, 2 months): 99.7%
Salt form ([1]; 25°C/60% RH, 2 months): Unchanged
Colour and trait ([1]; 25°C/60% RH, 3 months): White powder
Purity% ([1]; 25°C/60% RH, 3 months): 99.7%
Salt form ([1]; 25°C/60% RH, 3 months): Unchanged
Colour and trait ([1]; 25°C/60% RH, 6 months): White powder
Purity% ([1]; 25°C/60% RH, 6 months): 99.7%
Salt form ([1]; 25°C/60% RH, 6 months): Unchanged
Colour and trait ([1]; 25°C/60% RH, 14 days): White powder
Purity% ([1]; 25°C/60% RH, 14 days): 99.7%
Salt form ([1]; 25°C/60% RH, 14 days): Unchanged
Colour and trait ([1]; 40°C/75% RH, 1 month): White powder
Purity% ([1]; 40°C/75% RH, 1 month): 99.7%
Salt form ([1]; 40°C/75% RH, 1 month): Unchanged
Colour and trait ([1]; 40°C/75% RH, 2 months): White powder
Purity% ([1]; 40°C/75% RH, 2 months): 99.7%
Salt form ([1]; 40°C/75% RH, 2 months): Unchanged
Colour and trait ([1]; 40°C/75% RH, 3 months): White powder
Purity% ([1]; 40°C/75% RH, 3 months): 99.7%
Salt form ([1]; 40°C/75% RH, 3 months): Unchanged
Colour and trait ([1]; 40°C/75% RH, 6 months): White powder
Purity% ([1]; 40°C/75% RH, 6 months): 99.7%
Salt form ([1]; 40°C/75% RH, 6 months): Unchanged
Colour and trait ([1]; 40°C/75% RH, 14 days): White powder
Purity% ([1]; 40°C/75% RH, 14 days): 99.6%
Salt form ([1]; 40°C/75% RH, 14 days): Unchanged
Colour and trait ([1]; Initial, 0 day): White powder
Purity% ([1]; Initial, 0 day): 99.7%
Salt form ([1]; Initial, 0 day): Crystal form I of p-toluenesulfonate
weight gain after moisture absorption ([2]; accelerated test conditions (70% RH)): about 1.57%
crystal form re-detected following the DVS test ([2]; after DVS test): unchanged
weight gain after moisture absorption ([2]; extreme conditions (90% RH)): about 2.21%
weight gain after moisture absorption ([2]; normal storage conditions (25°C, 60% RH)): about 1.18%
Colour and trait ([3]; 40°C, 1 month, open container): White powder
Purity% ([3]; 40°C, 1 month, open container): 95.2%
Salt form ([3]; 40°C, 1 month, open container): Unchanged
Colour and trait ([3]; 40°C, 7 days, open container): White powder
Purity% ([3]; 40°C, 7 days, open container): 98.7%
Salt form ([3]; 40°C, 7 days, open container): Unchanged
Colour and trait ([3]; 40°C, 13 days, open container): White powder
Purity% ([3]; 40°C, 13 days, open container): 97.6%
Salt form ([3]; 40°C, 13 days, open container): Unchanged
Colour and trait ([3]; 60°C, 1 month, open container): White powder
Purity% ([3]; 60°C, 1 month, open container): 94.9%
Salt form ([3]; 60°C, 1 month, open container): Unchanged
Colour and trait ([3]; 60°C, 7 days, open container): White powder
Purity% ([3]; 60°C, 7 days, open container): 98.7%
Salt form ([3]; 60°C, 7 days, open container): Unchanged
Colour and trait ([3]; 60°C, 13 days, open container): White powder
Purity% ([3]; 60°C, 13 days, open container): 97.8%
Salt form ([3]; 60°C, 13 days, open container): Unchanged
Colour and trait [3, 7]: White powder
Purity% [3, 7]: 99.7%
Salt form [3, 7]: Unchanged
Colour and trait [3, 8]: White powder
Purity% [3, 8]: 99.7%
Salt form [3, 8]: Unchanged
Colour and trait [3, 9]: White powder
Purity% [3, 9]: 99.7%
Salt form [3, 9]: Unchanged
Colour and trait [3, 10]: White powder
Purity% [3, 10]: 99.7%
Salt form [3, 10]: Unchanged
Colour and trait [3, 11]: White powder
Purity% [3, 11]: 99.1%
Salt form [3, 11]: Unchanged
Colour and trait [3, 12]: White powder
Purity% [3, 12]: 99.6%
Salt form [3, 12]: Unchanged
Colour and trait [3, 13]: White powder
Purity% [3, 13]: 99.5%
Salt form [3, 13]: Unchanged
Colour and trait ([3]; Initial, 0 day): White powder
Purity% ([3]; Initial, 0 day): 99.7%
Salt form ([3]; Initial, 0 day): Crystal form I of p-toluenesulfonate

C=CC(=O)N1[C@@H]2CC[C@H]1C[C@@H](Oc1ccc3ncnc(Nc4ccc(Oc5ccn6ncnc6c5)c(C)c4F)c3c1)C2 [Example 1, 1-(endo-3-((4-((4-([1,2,4]triazolo[1,5-a]pyridin-7-yloxy)-2-fluoro-3-methylphenyl)amino)quinazolin-6-yl)oxy)-8-azabicyclo[3.2.1]oct-8-yl)prop-2-en-1-one]
HER2 WT/BaF 3 Imax % [4]: 100%
GI50 ([4]; read-out: HER2 WT/Ba F3 GI50): 9.3 nM
HER2 A775_G77 6 ins YVMA/Ba F3 Imax % [5]: 100%
GI50 [5]: 10.3 nM
EGFR WT/BaF 3 Imax % [6]: 100%
GI50 ([6]; read-out: EGFR WT/BaF3 GI50): 2840 nM

Cc1cc(Nc2ncnc3ccc(NC4=NC(C)(C)CO4)cc23)ccc1Oc1ccn2ncnc2c1 [Tucatinib, reference compound]
HER2 A775_G77 6 ins YVMA/Ba F3 Imax % [5]: 100%
GI50 ([5]; Mus musculus, BaF3): 309 nM
